This is an account of results in ChEMBL document CHEMBL3098080, “Replacement of amide with bioisosteres led to a new series of potent adenosine A2A receptor antagonists” (Bioorg Med Chem Lett, 2014).

One may read the inhibition as the drop in the measured response relative to a control, in per cent. As usually defined, the Ki is a measure of affinity in units of concentration, obtained from inhibition or displacement. A lower Ki goes with higher affinity.

SMILES strings stand for the structures.

Series [1] is described as follows: Chemical stability in 0.2N HCl in methanol after 24 hrs. The format is physicochemical.
Series [2] addresses T1, Adenosine receptor A2a (Homo sapiens, UniProt P29274). The experiment in a line: Inhibition of adenosine A2A receptor (unknown origin) at 100 umol/L relative to control.
The target in series [3] is T1, Adenosine receptor A2a. The series is described as follows: Displacement of [3H]-ZM241385 from human adenosine A2A receptor expressed in HEK293 cells. The format is cell-based. Background: Displacement assays read how much labelled ligand stays bound in the presence of the test substance.

T1 sequence (P29274 whole entry): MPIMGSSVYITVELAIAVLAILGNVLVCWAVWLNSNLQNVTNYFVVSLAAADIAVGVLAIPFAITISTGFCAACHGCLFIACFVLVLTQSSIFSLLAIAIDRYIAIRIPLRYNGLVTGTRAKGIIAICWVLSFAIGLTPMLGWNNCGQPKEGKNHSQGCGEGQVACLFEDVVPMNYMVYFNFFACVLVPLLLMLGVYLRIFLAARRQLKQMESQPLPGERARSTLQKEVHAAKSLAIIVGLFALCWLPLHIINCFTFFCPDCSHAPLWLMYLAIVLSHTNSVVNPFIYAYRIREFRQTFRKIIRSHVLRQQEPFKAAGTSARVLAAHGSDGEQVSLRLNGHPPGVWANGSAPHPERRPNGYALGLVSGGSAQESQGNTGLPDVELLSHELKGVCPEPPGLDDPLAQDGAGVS

As to `COC[C@H]1CCCN1c1cc(Nc2cnccn2)nc(-n2nc(C)cc2C)n1`, the Stability entry in series [1] is listed as “Stable”. Also, in series [2], the inhibition was 124%. The molecule further displayed a Ki in series [3] of 0.069 µM.
For the molecule `Cc1cc(C)n(-c2nc(Nc3ccccn3)cc(-n3cccn3)n2)n1`, in series [2], the inhibition was determined as 117%. The molecule further returned a Ki in series [3] of 0.0092 µM.
On to `COC[C@H]1CCCN1c1cc(NC(C)=O)nc(-n2nc(C)cc2C)n1`, for which, in series [2], the inhibition is 123%. In series [3], this molecule came in with a Ki of 0.015 µM.
As for `Cc1cc(C)n(-c2nc(Nc3cnccn3)cc(N3CCc4ccccc4C3)n2)n1`, in series [2], the inhibition was 121%. In addition, the inhibitory constant (Ki) in series [3] was 0.0011 µM.
Take `COC[C@H]1CCCN1c1cc(Nc2nccs2)nc(-n2nc(C)cc2C)n1`: the Stability entry in series [1] was “Stable”. In addition, the inhibition in series [2] came out at 123%. This molecule also came in with a Ki in series [3] of 0.0095 µM.
Take `Cc1cc(C)n(-c2nc(Nc3ccccn3)cc(N3CCc4ccccc4C3)n2)n1`: in series [2], the inhibition was determined as 95%. Also, in series [3], the Ki was found to be 0.065 µM.
As for `Cc1cc(C)n(-c2nc(Nc3nccs3)cc(N3CCc4ccccc4C3)n2)n1`, the inhibition in series [2] amounted to 117%. The Ki in series [3] came to 0.066 µM.
On to `COC[C@H]1CCCN1c1cc(Nc2ncccn2)nc(-n2nc(C)cc2C)n1`, for which the inhibition in series [2] is 71%.
For `COCCOc1ccc(N2CCN(CCn3ncc4c3nc(N)n3nc(-c5ccco5)nc43)CC2)cc1` [PRELADENANT], the inhibition in series [2] amounted to 120%. The affinity in series [3] corresponds to a Ki of 0.001 µM.
`Cc1cc(C)n(-c2nc(Nc3ncccn3)cc(-n3cccn3)n2)n1`: in series [2], the inhibition was determined as 23%.
Still for that read-out and setting: in the case of `Cc1cc(C)n(-c2nc(Nc3nccs3)cc(-n3cccn3)n2)n1` it was 58%.
`Cc1cc(C)n(-c2nc(Nc3cnccn3)cc(-n3cccn3)n2)n1`: the inhibition in series [2] amounted to 117%. Also, the Ki in series [3] was 0.043 µM.
On to `Cc1cc(C)n(-c2nc(Nc3ncccn3)cc(N3CCc4ccccc4C3)n2)n1`, for which the inhibition in series [2] is -5%.
Take `COC[C@H]1CCCN1c1cc(NCC(F)(F)F)nc(-n2nc(C)cc2C)n1`: in series [1], the Stability entry is recorded as “Stable”. In addition, the inhibition in series [2] was found to be 115%. The molecule also returned a Ki in series [3] of 0.024 µM.
For the molecule `Cc1cc(C)n(-c2nc(NCC(F)(F)F)cc(N3CCc4ccccc4C3)n2)n1`, the inhibition in series [2] came to 64%.
Regarding `COC[C@H]1CCCN1c1cc(Nc2ccccn2)nc(-n2nc(C)cc2C)n1`, the Stability entry in series [1] is reported as “Stable”. Further, in series [2], the inhibition was found to be 124%. In series [3], this molecule displayed a Ki of 0.045 µM.
Turning to `Cc1cc(C)n(-c2nc(NCC(F)(F)F)cc(-n3cccn3)n2)n1`, the inhibition in series [2] stood at 117%. The affinity in series [3], expressed as Ki, was 0.052 µM.
